Measurements published in patent US9707234B2, “Spirocyclic hetercycle compounds useful as HIV integrase inhibitors” (MERCK SHARP & DOHME CORP., priority 2013, dated 2017).
Where two headings read alike, the source gives them in different places.

System: HIV-1 (H9IIIB or NL4-3 virus) replication in MT4-GFP cells
Assay: microbe, parasite or virus in culture
Format: cell-based
Conditions: inhibition of reproductive ratio R0, 48-72 h post-infection
[1] = MT4-GFP cells infected with HIV-1, 100% normal human serum, read-out: ViKinG IP (nM) with 100% NHS
[2] = Human immunodeficiency virus 1, NL43, MT4-GFP cells infected with HIV-1, 10% normal human serum, read-out: ViKinG IP (nM) with 10% NHS
[3] = Human immunodeficiency virus 1, NL43, MT4-GFP cells infected with HIV-1, 100% normal human serum, read-out: ViKinG IP (nM) with 100% NHS
[4] = Human immunodeficiency virus 1, NL43, MT4-GFP cells infected with HIV-1, serum free conditions (0% NHS), read-out: ViKinG IP (nM) with 0% NHS
[5] = MT4-GFP cells infected with HIV-1, serum free conditions (0% NHS), read-out: ViKinG IP (nM) with 0% NHS
[6] = MT4-GFP cells infected with HIV-1, 10% normal human serum, read-out: ViKinG IP (nM) with 10% NHS

CN1C(=O)c2c(O)c(=O)c(C(=O)NCc3ccc(F)c(Cl)c3F)cn2N(C)C12CCOC2 (single isomer, unassigned) [Compound 118]
IC50 [1]: 101 nM

CCN1C(=O)c2c(O)c(=O)c(C(=O)NCc3ccc(F)cc3F)cn2N(C)C12CCOC2 (single isomer, unassigned) [Compound 119]
IC50 [2]: 11 nM
IC50 [3]: 163 nM
IC50 [4]: 1.2 nM

CCN1C(=O)c2c(O)c(=O)c(C(=O)NCc3ccc(F)cc3F)cn2N(C)C12CCOC2 (single isomer, unassigned) [Compound 120]
IC50 [1]: 266 nM
IC50 [5]: 2.1 nM

COCCN1C(=O)c2c(O)c(=O)c(C(=O)NCc3ccc(F)cc3F)cn2N(C)C12CCOC2 (single isomer, unassigned) [Compound 121]
IC50 [2]: 39 nM
IC50 [4]: 1.8 nM
IC50 [1]: 575 nM

COCCN1C(=O)c2c(O)c(=O)c(C(=O)NCc3ccc(F)cc3F)cn2N(C)C12CCOC2 (single isomer, unassigned) [Compound 122]
IC50 [1]: 1990 nM
IC50 [5]: 2.4 nM

COCCCN1C(=O)c2c(O)c(=O)c(C(=O)NCc3ccc(F)cc3F)cn2N(C)C12CCOC2 (single isomer, unassigned) [Compound 123]
IC50 [4]: 1.2 nM
IC50 [6]: 9 nM
IC50 [1]: 117 nM

COCCCN1C(=O)c2c(O)c(=O)c(C(=O)NCc3ccc(F)cc3F)cn2N(C)C12CCOC2 (single isomer, unassigned) [Compound 124]
IC50 [6]: 22 nM
IC50 [1]: 309 nM
IC50 [5]: 1.8 nM

CCOCCN1C(=O)c2c(O)c(=O)c(C(=O)NCc3ccc(F)cc3F)cn2N(C)C12CCOC2 (single isomer, unassigned) [Compound 125]
IC50 [3]: 257 nM
IC50 [4]: 0.8 nM

CCOCCN1C(=O)c2c(O)c(=O)c(C(=O)NCc3ccc(F)cc3F)cn2N(C)C12CCOC2 (single isomer, unassigned) [Compound 126]
IC50 [1]: 455 nM
IC50 [5]: 1.3 nM

CN1C(=O)c2c(O)c(=O)c(C(=O)NCc3cccc(Cl)c3F)cn2N(C)C12COCC2(C)C (single isomer, unassigned) [Compound 127]
IC50 [3]: 134 nM
IC50 [4]: 1 nM

CN1C(=O)c2c(O)c(=O)c(C(=O)NCc3cccc(Cl)c3F)cn2N(C)C12COCC2(C)C (single isomer, unassigned) [Compound 128]
IC50 [1]: 131 nM
IC50 [5]: 0.7 nM

CN1C(=O)c2c(O)c(=O)c(C(=O)NCc3ccc(F)cc3F)cn2N(C)C12COCC2(C)C (single isomer, unassigned) [Compound 129]
IC50 [1]: 73 nM
IC50 [5]: 0.6 nM

CN1C(=O)c2c(O)c(=O)c(C(=O)NCc3ccc(F)cc3F)cn2N(C)C12COCC2(C)C (single isomer, unassigned) [Compound 130]
IC50 [1]: 257 nM
IC50 [5]: 2.3 nM

CC1OCCC12N(C)C(=O)c1c(O)c(=O)c(C(=O)NCc3ccc(F)cc3F)cn1N2C (single isomer, unassigned) [Compound 131]
IC50 [4]: 0.8 nM
IC50 [1]: 114 nM

CC1OCCC12N(C)C(=O)c1c(O)c(=O)c(C(=O)NCc3ccc(F)cc3F)cn1N2C (single isomer, unassigned) [Compound 132]
IC50 [1]: 77 nM

CC1OCCC12N(C)C(=O)c1c(O)c(=O)c(C(=O)NCc3ccc(F)cc3F)cn1N2C (single isomer, unassigned) [Compound 133]
IC50 [1]: 55 nM

CC1OCCC12N(C)C(=O)c1c(O)c(=O)c(C(=O)NCc3ccc(F)cc3F)cn1N2C (single isomer, unassigned) [Compound 134]
IC50 [1]: 65 nM
IC50 [5]: 0.9 nM

CC1OCCC12N(C)C(=O)c1c(O)c(=O)c(C(=O)NCc3cccc(Cl)c3F)cn1N2C (single isomer, unassigned) [Compound 135]
IC50 [4]: 0.9 nM
IC50 [1]: 486 nM

CC1OCCC12N(C)C(=O)c1c(O)c(=O)c(C(=O)NCc3cccc(Cl)c3F)cn1N2C (single isomer, unassigned) [Compound 136]
IC50 [1]: 83 nM

CC1OCCC12N(C)C(=O)c1c(O)c(=O)c(C(=O)NCc3cccc(Cl)c3F)cn1N2C (single isomer, unassigned) [Compound 137]
IC50 [1]: 64 nM
IC50 [5]: 0.7 nM
